Data reported in patent US20220090998A1, “URINE STABILIZATION” (QIAGEN GmbH, priority 2019, published 2022).

Columns and labels:
[1] = system: human 18S rDNA gene, 66 bp amplicon; experiment: Real time PCR of 18S rDNA 66 bp fragment in cell-free DNA from urine
Method: (§1) Cell-free DNA from 4-4.8 ml stabilized or unstabilized urine was isolated with the QIAsymphony PAXgene Blood ccfDNA Kit (QIAGEN kit) protocol.
Total quantification was achieved by comparison with a standard curve generated with human genomic DNA samples equivalent to 10.000 to 10 copies of human 18s rDNA gene.
Quantification of the 500 bp was used to determine the amount of 18S rDNA copies which derived from apoptotic or mechanically lysed urine cells. […] Therefore 500 bp fragments can be considered to be derived from apoptotic, lysed or otherwise destructed urine cells.
All samples were processed in duplicates.
(§2) Cell-free DNA was subsequently purified on the QIAsymphony either directly after collection (t0) or after 1, 3 and 9 days incubation at room temperature. […] Relative yield of Y-chromosomale DYS14 DNA was determined from duplicate samples by real time PCR (no PCR replicates).
200 ml urine each from three donors was collected. […] For processing, the samples were centrifuged 15 min at 1900×g. Supernatant was centrifuged again (10 min 1900×g) and the supernatant from the second centrifugation was used for duplicate purification of cell-free DNA on a QIAsymphony system. The cell pellet obtained after the first centrifugation was resolved in 300 μl PBS. 200 μl of the resuspended cell pellet was used for extraction of the genomic DNA using the QIAamp Blood Mini kit. The remaining 100 μl were centrifuged on a glass slide and stained with Papanicolaou (see FIG. 7). […] Genomic DNA yield was measured on a Nanodrop instrument.
Supernatant was centrifuged again (10 min at 1900×g) and the supernatant from the second centrifugation was used for duplicate purification of cell-free DNA on the QIAsymphony.
For EDTA stabilized samples the overall increase in DNA can be deduced from the observed degradation (Dys 14—see FIG. 16) and increase (18s—see FIGS. 14 and 15).

[2] = system: human 18S rDNA gene, 500 bp amplicon; settings: t0 to t4 d storage (FIG. 15)
Method: Cell-free DNA from 4-4.8 ml stabilized or unstabilized urine was isolated with the QIAsymphony PAXgene Blood ccfDNA Kit (QIAGEN kit) protocol. The QIAsymphony robot mixed urine with proteinase K, binding buffer and magnetic beads. Beads with bound DNA were washed three times and DNA was eluted using 60 μl elution buffer.
To measure the amount of cell-free DNA a real time PCR assay on Abi Prism HT7900 (Life technologies) was performed with 8 μl of eluate. In a 20 μl assay volume using QuantiTect Multiplex PCR Kit reagents (QIAGEN GmbH) two fragments of the human 18S rDNA gene were amplified in a multiplex PCR. Total quantification was achieved by comparison with a standard curve generated with human genomic DNA samples equivalent to 10.000 to 10 copies of human 18s rDNA gene.
Quantification of the 66 bp fragment was used to reflect the total amount of 18S rDNA copies in the urine. Quantification of the 500 bp was used to determine the amount of 18S rDNA copies which derived from apoptotic or mechanically lysed urine cells.
200 ml urine each from four female and two male donors was collected. Aliquots of 10 ml urine were mixed within 15 min after sampling with 1.7 ml PBS or stabilizing reagent. […] The copy numbers of 18s rDNA were determined from duplicate samples in triplicates by real time PCR.

[3] = system: human Y-chromosomale DYS14 gene, 66 bp amplicon; experiment: Real time PCR for Y-chromosomal DYS14 DNA: preservation of male cell-free DNA spiked into female urine
Method: as §1
To measure the degradation of cell-free DNA, the relative yield of male cell-free DNA spiked into female samples was analyzed. A real time PCR assay on RotorGene Q (QIAGEN GmbH) was performed with 8 μl of eluate.
Urine from one donor was centrifuged twice to remove all cells from the urine for spike-in into female urine. Urine was collected in larger bottles from two female and two male donors. In case of the two female donors 25 ml centrifuged and therefore cell-free male urine was added to the 200 ml female urine. Approximately 120 ml urine from each donor was filled into BD Vacutainer Urine Collection Cups. Urine was transferred from the cups into two spray dried EDTA tubes, one PAXgene Blood ccfDNA tube and one Streck cell-free DNA BCT tube per donor. One of the EDTA tubes per donor was opened and 1.7 ml of stabilization reagent R1 was added. All tubes were carefully inverted 5 times to mix the urine with the components.
as §2
Urine from one donor was centrifuged twice to remove all cells from the urine for spike in into female urine. 200 ml urine each from six female donors were collected in large bottles and mixed with 25 ml cell-free male urine directly after collection. Aliquots of 10 ml urine ([…]) were mixed with 1.7 ml reagent. […] All samples were processed in duplicates. Real time PCR for y-chromosomale DYS14 DNA was performed from duplicate samples.
To analyse the effect of pH on cell-free DNA preservation, urine from one donor was centrifuged twice to remove all cells from the urine for spike in into female urine. 200 ml urine each from four female donors were collected in large bottles and mixed with 25 ml cell-free male urine directly after collection. […]

## O=C(O)CN(CCN(CC(=O)O)CC(=O)O)CC(=O)O [EDTA, Ethylenediaminetetraacetic acid]
[1]; 4 days storage at RT (FIG. 14)
  Delta Ct t0-t4 d 18 s 66 bp: 2
[1]; Example 2, BD Vacutainer cup to tubes, 1, 3 and 9 days at RT, 4 donors (FIG. 3)
  total DNA in urine over storage (18s rDNA 66 bp copies versus t0), words: nor an increase in total DNA comprised in the urine due to DNA release from cells
[1]; deduced from observed degradation (Dys 14) and increase (18s), t0 to t4 d
  Overall increase (in DNA resulting from cells): 4 × 4 = 16 fold
[1]; t0 to t4 d at RT
  Increase (of 18S 66 bp DNA, from Delta Ct): 4 fold
[1]; t0 to t4 d storage (FIG. 14)
  change in the 66 bp fragment: small increase
[2]
  decrease in the 500 bp fragment: approx. 32 fold
[3]; Example 2, 2 female donors, 1, 3 and 9 days at RT (FIG. 4)
  preservation of spiked in male cell-free DNA (DYS14 delta Ct versus t0), words: neither prevents sufficiently cell free DNA degradation
[3]; male cell-free urine spiked in female urine, 4 days storage at RT (FIG. 16)
  Delta Ct t0-t4 d Dys 14: ~2
[3]; t0 to t4 d at RT
  Reduction (of DYS14 DNA, from Delta Ct): 4 fold
